Experimental data from ChEMBL document CHEMBL1641487, “Aspergilones A and B, two benzylazaphilones with an unprecedented carbon skeleton from the gorgonian-derived fungus Aspergillus sp” (Bioorg Med Chem Lett, 2011).
In brackets after ≈: the same amount, converted by molar mass.

What was measured:
[1] = tested on: MCF7; experiment: Cytotoxicity against human MCF7 cells; type: functional, cell-based
[2] = tested on: Amphibalanus amphitrite; experiment: Antifouling activity against Balanus amphitrite assessed as larval settlement barnacle; type: functional, organism-based
[3] = tested on: A549; experiment: Cytotoxicity against human A549 cells; type: functional, cell-based
[4] = tested on: HL-60; experiment: Cytotoxicity against human HL60 cells; type: functional, cell-based

CC1=C2C(=CO[C@@H](C)[C@@H]2C)C(=O)C(Cc2ccccc2)(Cc2ccccc2)C1=O [ASPERGILONE A]
IC50 [1]: 25 µg/mL (≈ 64.7 µM)
EC50 [2]: 25 µg/mL (≈ 64.7 µM)
IC50 [3]: 37 µg/mL (≈ 95.7 µM)
IC50 [4]: 3.2 µg/mL (≈ 8.28 µM)

CC1=C2C(=CO[C@@H](C)[C@@H]2C)C(=O)[C@@](Cc2ccccc2)(C[C@]2(Cc3ccccc3)C(=O)C3=CO[C@@H](C)[C@H](C)C3=C(C)C2=O)C1=O [ASPERGILONE B]
IC50 [1]: > 50 µg/mL
IC50 [3]: > 50 µg/mL
IC50 [4]: > 50 µg/mL
